Experimental data taken from article PMC2749862, “Glucocorticoids with different chemical structures but similar glucocorticoid receptor potency regulate subsets of common and unique genes in human trabecular meshwork cells” (BMC Medical Genomics, 2009).
“And” between values parts separate entries of the source, which are not always exact repeats. Equal values may be shown once.

Tests used:
[1] = target: T1, glucocorticoid receptor (Homo sapiens, UniProt P04150); assay: GR radiolabeled competitive binding assay (IM-9 cell cytosol, [3H]dexamethasone; Cerep)
T1 sequence (P04150 524-777 limits assumed): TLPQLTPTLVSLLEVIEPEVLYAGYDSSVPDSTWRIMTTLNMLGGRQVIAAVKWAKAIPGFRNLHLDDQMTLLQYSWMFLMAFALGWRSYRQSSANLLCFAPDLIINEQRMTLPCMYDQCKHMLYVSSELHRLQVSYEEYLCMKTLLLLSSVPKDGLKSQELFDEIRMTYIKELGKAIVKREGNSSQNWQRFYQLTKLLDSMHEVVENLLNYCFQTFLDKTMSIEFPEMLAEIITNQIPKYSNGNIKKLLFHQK
Description: GR binding affinity assay was performed at Cerep Inc. (Celle l'Evescault, France), according to an established method. […] Nonspecific binding is determined in the presence of 10 μM triamcinolone. Following incubation, the samples are filtered rapidly under vacuum through glass fiber filters (GF/B, Packard) presoaked with 0.3% Poly(ethyleneimine) and rinsed several times with ice-cold 50 mM Tris-HCl using a 96-sample cell harvester (Unifilter, Packard). The filters are dried and counted for radioactivity in a scintillation counter (Topcount, Packard) using a scintillation cocktail (Microscint 0, Packard). The results are expressed as percent inhibition of the control radioligand specific binding. The IC50 values (concentration causing half-maximal inhibition of control specific binding) and Hill coefficients (nH) were determined by non-linear regression analysis of the competition curves generated with mean replicate values using Hill equation curve fitting (Y = D + [(A - D)/(1 + (C/C50)^nH)], where Y = specific binding, D = minimum specific binding, A = maximum specific binding, C = compound concentration, C50 = IC50, and nH = slope factor). […] The inhibition constants (Ki) were calculated using the Cheng Prusoff equation (Ki = IC50/(1+(L/KD)), where L = concentration of radioligand in the assay, and KD = affinity of the radioligand for the receptor). […] The GR binding assay was performed in duplicate.

[2] = target: T1, glucocorticoid receptor; assay: GeneBLAzer beta-lactamase reporter gene assay, GR transactivation in MMTV-bla HeLa CellSensor cells; type: cell-based; conditions: 5 hr treatment
Description: GR transactivation activity was assessed by the Invitrogen SelectScreen Profiling Service (Madison, WI), using Invitrogen GeneBLAzer beta-lactamase reporter gene technology. Profiling was performed using human HeLa cells stably transfected with an expression construct containing β-lactamase cDNA under the control of the MMTV response element previously identified as a GR response element (MMTV-bla HeLa CellSensor®). The MMTV-bla HeLa cells were plated in 384-well plates in 32 μl assay medium (OPTIMEM + 1% charcoal/dextran stripped FBS) at a density of 10,000 cells/well and incubated overnight. […] The β-lactamase activity of each sample was determined by adding 8 μl of 6-fold concentrated LiveBLAzer™ substrate solution to the samples followed by two hours of incubation at room temperature in a Tecan Safire2 plate reader using the appropriate LiveBLAzer™ filter settings. GC treatment was performed in 15-point dose response using a three-fold dilution series starting with a maximum compound concentration of 10 μM. Each data point represents a triplicate sample (n = 3). Assay reproducibility was determined by calculating Z' values for untreated vs. maximum stimulation. The GeneBLAzer assay was performed twice.

[3] = system: TM 86 cells; assay: Microarray gene expression profiling in TM 86 cells (with IPA and GoMiner analysis); type: cell-based, human; conditions: 1 μM, 24 hr
Source text: (§1) Cells were maintained in low glucose Dulbecco's Modified Eagle Medium (DMEM, Invitrogen, Carlsbad, CA) supplemented with 10% (vol/vol) FBS (American Type Culture Collection, Manassas, VA), 1% (vol/vol) penicillin and streptomycin (Invitrogen). Cells from the human HeLa cervical adenocarcinoma cell line (American Type Culture Collection) were maintained in α-MEM medium supplemented with 10% (v/v) FBS, 1% (v/v) penicillin and streptomycin. All cells were used within passages 3 to 6. […] Cells were maintained for one week with medium renewal every other day. The day before the experiment, confluent TM were washed once with phosphate-buffered saline (PBS) and then the cells were maintained in 1% FBS-containing medium with antibiotics. […] Control cells were treated with 0.1%(v/v) dimethylsulfoxide (DMSO). At the end of GC treatment, supernatant was discarded and the cell monolayer was kept frozen at -80°C for subsequent total RNA extraction and gene expression profiling. […] Briefly, RNA was isolated from flash frozen cell culture plates using RNeasy Mini columns (Qiagen, Valencia, CA) according to the manufacturer's protocol. There were three biological replicates per treatment condition. The quantity and purity of the extracted RNA was evaluated using a NanoDrop ND-1000 spectrophotometer (Nanodrop Technologies, Wilmington, DE, USA) and its integrity measured using an Agilent Bioanalyzer. […] The amount and quality of the fluorescently labeled cRNA was assessed using a NanoDrop ND-1000 spectrophotometer and an Agilent Bioanalyzer. An equal amount of Cy3-labeled cRNA (1.6 μg) was hybridized to the Agilent Human Whole Genome Oligo Microarray (Agilent Technologies) for 17 hours, prior to washing and scanning. Data were extracted from scanned images using Agilent's Feature Extraction Software (Agilent Technologies) using default settings. […] The full complement of microarray data has been deposited in the NIH/NLM Gene Expression Omnibus (GEO accession # GSE16643). […] The lists of differentially expressed genes were also applied to global functional, network and canonical pathway analyses using Ingenuity Pathway Analysis (Ingenuity® Systems, Redwood City, CA).

[4] = system: TM 93 cells; assay: Microarray gene expression profiling in TM 93 cells (with IPA and GoMiner analysis); type: cell-based, human; conditions: 1 μM, 24 hr
Source text: as §1

nH (Hill coefficient) ([1]; IM-9 cell cytosol competition curves): 1.10 ± 0.00 | Ki ([1]; IM-9 cell cytosol, calculated by Cheng Prusoff equation): 0.97 ± 0.17 nM | IC50 ([1]; read-out: GR binding affinity IC50): 2 ± 0.42 nM | EC50 [2]: 0.7 nM and 0.67 nM
SMILES: CC1(C)O[C@@H]2C[C@H]3[C@@H]4C[C@H](F)C5=CC(=O)C=C[C@]5(C)[C@@]4(F)[C@@H](O)C[C@]3(C)[C@]2(C(=O)CO)O1 [FA, fluocinolone acetonide]
function of significantly regulated transcripts (Ingenuity Pathway Analysis) [3]: lipid metabolism | number of genes uniquely regulated by each GC [3]: 693 | significantly regulated biological process (GoMiner gene ontology) [3]: actin filament-based process | significantly regulated network (Ingenuity Pathway Analysis) [3]: a GR-dependent network | ANGPTL4 FC (fold change) ([3]; microarray): 9.6 fold | ANGPTL7 FC (fold change) ([3]; microarray): 16.0 fold | AQP1 FC (fold change) ([3]; microarray): -4.4 fold | CCRL1 FC (fold change) ([3]; microarray): -4.7 fold | CXADR FC (fold change) ([3]; microarray): -3.4 fold | FKBP5 FC (fold change) ([3]; microarray): 13.8 fold | GABRB1 FC (fold change) ([3]; microarray): -4.0 fold | ITGA10 FC (fold change) ([3]; microarray): 25.1 fold | KAL1 FC (fold change) ([3]; microarray): -5.6 fold | KCNB1 FC (fold change) ([3]; microarray): 20.1 fold | KIF4A FC (fold change) ([3]; microarray): -3.6 fold | KLF15 FC (fold change) ([3]; microarray): 11.5 fold | LSP1 FC (fold change) ([3]; microarray): 14.9 fold | MXRA5 FC (fold change) ([3]; microarray): -4.3 fold | MYOC FC (fold change) ([3]; microarray): 7.4 fold | PCDH19 FC (fold change) ([3]; microarray): -5.1 fold | PER3 FC (fold change) ([3]; microarray): -5.3 fold | PF4 FC (fold change) ([3]; microarray): 3.1 fold and 3.2 fold | RASL11B FC (fold change) ([3]; microarray): -4.9 fold | RGC32 FC (fold change) ([3]; microarray): >100 fold | SAA1 FC (fold change) ([3]; microarray): 34.6 fold | ZBTB16 FC (fold change) ([3]; microarray): 8.7 fold | function of significantly regulated genes (Ingenuity Pathway Analysis) [4]: cell cycle | number of genes uniquely regulated by each GC [4]: 2294 | significantly regulated biological process (GoMiner gene ontology) [4]: biopolymer metabolic process | significantly regulated network (Ingenuity Pathway Analysis) [4]: JARID1B-based network | ANGPTL4 FC (fold change) ([4]; microarray): 9.1 fold | ANGPTL7 FC (fold change) ([4]; microarray): 13.0 fold | AQP1 FC (fold change) ([4]; microarray): -3.2 fold | CCRL1 FC (fold change) ([4]; microarray): -2.5 fold | CXADR FC (fold change) ([4]; microarray): -1.8 fold | ENST00000344214 FC (fold change) ([4]; microarray): -6.3 fold | FKBP5 FC (fold change) ([4]; microarray): 6.8 fold | GABRB1 FC (fold change) ([4]; microarray): -2.2 fold | ITGA10 FC (fold change) ([4]; microarray): 9.1 fold | KAL1 FC (fold change) ([4]; microarray): -3.0 fold | KCNB1 FC (fold change) ([4]; microarray): 5.2 fold | KIF4A FC (fold change) ([4]; microarray): -2.2 fold | KLF15 FC (fold change) ([4]; microarray): 3.6 fold | LSP1 FC (fold change) ([4]; microarray): 18.0 fold | MXRA5 FC (fold change) ([4]; microarray): -4.5 fold | MYOC FC (fold change) ([4]; microarray): 2.7 fold | OCA2 FC (fold change) ([4]; microarray): 98.0 fold | PCDH19 FC (fold change) ([4]; microarray): -3.9 fold | PER3 FC (fold change) ([4]; microarray): -3.6 fold | PF4 FC (fold change) ([4]; microarray): 6.5 fold | RGC32 FC (fold change) ([4]; microarray): 11.0 fold | SAA1 FC (fold change) ([4]; microarray): 8.3 fold | ZBTB16 FC (fold change) ([4]; microarray): 4.9 fold
